Reference: patent publication US9295732B2, “Conjugated TLR7 and/or TLR8 and TLR2 polycationic agonists” (CAYLA, priority 2013, dated 2016)

What was measured:
[1] = biological target: T1, human TLR7 (Homo sapiens, UniProt Q9NYK1); assay: HEK-Blue hTLR7 NF-κB/AP-1 SEAP reporter assay; format: cell-based; details: HEK-Blue hTLR7 cells, 10 μg/mL to 10 pg/ml, 24 hours, OD at 655 nm, FIG. 1
T1 construct: host or cells: HEK293 (HEK-Blue™ hTLR7)
T1 sequence (Q9NYK1 27-1049): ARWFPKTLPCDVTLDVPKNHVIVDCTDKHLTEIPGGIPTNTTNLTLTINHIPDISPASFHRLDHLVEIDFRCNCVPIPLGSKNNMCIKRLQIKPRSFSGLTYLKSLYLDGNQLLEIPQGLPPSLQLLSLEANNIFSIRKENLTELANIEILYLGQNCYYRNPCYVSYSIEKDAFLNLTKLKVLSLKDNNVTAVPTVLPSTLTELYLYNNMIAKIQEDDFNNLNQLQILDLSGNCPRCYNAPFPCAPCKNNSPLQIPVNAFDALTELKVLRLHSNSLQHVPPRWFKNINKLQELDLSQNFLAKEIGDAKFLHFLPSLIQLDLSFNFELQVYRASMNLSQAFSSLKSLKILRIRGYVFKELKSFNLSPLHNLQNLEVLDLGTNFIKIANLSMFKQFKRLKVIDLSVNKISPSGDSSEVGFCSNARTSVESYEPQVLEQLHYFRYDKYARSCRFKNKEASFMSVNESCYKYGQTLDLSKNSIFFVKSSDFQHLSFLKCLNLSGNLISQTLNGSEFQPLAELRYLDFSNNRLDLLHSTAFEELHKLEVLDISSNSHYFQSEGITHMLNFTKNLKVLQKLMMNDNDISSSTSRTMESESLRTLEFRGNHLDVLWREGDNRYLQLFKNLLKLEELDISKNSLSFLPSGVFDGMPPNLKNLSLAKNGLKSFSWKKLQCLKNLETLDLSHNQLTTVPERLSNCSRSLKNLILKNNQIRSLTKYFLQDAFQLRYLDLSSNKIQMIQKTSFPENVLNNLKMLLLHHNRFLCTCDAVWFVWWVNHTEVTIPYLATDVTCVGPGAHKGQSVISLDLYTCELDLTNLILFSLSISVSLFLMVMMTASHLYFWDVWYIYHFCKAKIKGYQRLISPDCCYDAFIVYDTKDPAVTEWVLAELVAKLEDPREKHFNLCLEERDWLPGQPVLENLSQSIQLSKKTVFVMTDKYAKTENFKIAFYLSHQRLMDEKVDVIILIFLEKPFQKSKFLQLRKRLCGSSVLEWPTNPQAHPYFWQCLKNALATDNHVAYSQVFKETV
Procedure, shortened: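 HEK293 cells stably expressing the given TLR, or RAW 264.7-derived cells (50,000 or 100,000 cells/well respectively), carry an NF-κB/AP-1-inducible SEAP reporter. Conjugated TLR7-TLR2 agonists at final 10 μg/mL to 10 pg/ml, 24 h at 37° C. SEAP read colorimetrically as OD at 655 nm in detection medium.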

[2] = tested on: B16-F1 tumor; assay: In vivo mouse B16-F1 tumor model, molecule alone; parameters: species or system C57BL/6 mice; details: by day 23, intra-tumoral injections, FIG. 8A
Procedure: Measurements were performed under gas anesthesia.
The second group received intra-tumoral injections of CL413 molecule alone (a TLR7-TLR2 Pam2CSK4-based molecule). Third and forth groups received intra-tumoral injections of the TLR2 ligand, Pam2CSK4 alone, and the TLR7 ligand alone, respectively. A fifth group received a combined treatment of Pam2CSK4 and TLR7 ligand, in solution at the equivalent molecule quantity of the respective TLR2 and TLR7 moieties in CL413 (in 100 μl Bionolyte G5® with Pluronic® F-68 2%) for a total of 3 injections.

Compound	ability to activate hTLR7 [1]	tumor volume [2]
CCCCCCCCCCCCCCCC(=O)OCC(CSC[C@H](N)C(=O)N[C@@H](CCC(=O)NCCCNCCCCNCCCN)C(=O)Nc1ccc(Cn2c(O)nc3c(N)nc(NCCCC)nc32)cc1)OC(=O)CCCCCCCCCCCCCCC (stereo partly drawn) [CL527, (6R,9S)-6,25-diamino-9-(4-((6-amino-2-(butylamino)-8-hydroxy-9H-purin-9-yl)methyl)phenylcarbamoyl)-7,12-dioxo-4-thia-8,13,17,22-tetraazapentacosane-1,2-diyl dipalmitate]	activate hTLR7	–
CCCCCCCCCCCCCCCC(=O)OCC(CSC[C@H](N)C(=O)NCCCNCCCCNCCCNC(=O)CNC(=O)c1ccc(Cn2c(O)nc3c(N)nc(NCCCC)nc32)cc1)OC(=O)CCCCCCCCCCCCCCC (stereo partly drawn) [CL553, (20R)-20-amino-1-(4-((6-amino-2-(butylamino)-8-hydroxy-9H-purin-9-yl)methyl)phenyl)-1,4,19-trioxo-22-thia-2,5,9,14,18-pentaazapentacosane-24,25-diyl dipalmitate]	activate hTLR7	–
(6S,9S,12S,15S,18S,21R)-6,25-diamino-21-(4-((6-amino-2-(butylamino)-8-hydroxy-9H-purin-9-yl)methyl)phenylcarbamoyl)-12,15,18-tris(4-aminobutyl)-9-(hydroxyl methyl)-7,10,13,16,19-pentaoxo-4-thia-8,11,14,17,20-pentaazapentacosane-1,2-diyl dipalmitate [CL413]	activate hTLR7	no increase in tumor volume
CCCCCCCCCCCCCCCC(=O)N[C@@H](CSCC(COC(=O)CCCCCCCCCCCCCCC)OC(=O)CCCCCCCCCCCCCCC)C(=O)N[C@@H](CO)C(=O)N[C@@H](CCCCN)C(=O)N[C@@H](CCCCN)C(=O)N[C@@H](CCCCN)C(=O)N[C@@H](CCCCN)C(=O)Nc1ccc(Cn2c(O)nc3c(N)nc(NCCCC)nc32)cc1 (stereo partly drawn) [CL534, ((6R,9S,12S,15S,18S,21S)-25-amino-21-(4-((6-amino-2-(butylamino)-8-hydroxy-9H-purin-9-yl)methyl)phenylcarbamoyl)-12,15,18-tris(4-aminobutyl)-9-(hydroxylmethyl)-7,10,13,16,19-pentaoxo-6-palmitamido-4-thia-8,11,14,17,20-pentaazapentacosane-1,2-diyl dipalmitate]	activate hTLR7	–
CCCCCCCCCCCCCCCC(=O)OCC(CSC[C@H](N)C(=O)N[C@@H](COC(=O)c1ccc(Cn2c(O)nc3c(N)nc(NCCCC)nc32)cc1)C(=O)NCCCNCCCCNCCCN)OC(=O)CCCCCCCCCCCCCCC (stereo partly drawn) [CL514, (6R,9S)-6,23-diamino-9-((4-((6-amino-2-(butylamino)-8-hydroxy-9H-purin-9-yl)methyl)benzoyloxy)methyl)-7,10-dioxo-4-thia-8,11,15,20-tetraazatricosane-1,2-diyl dipalmitate]	activate hTLR7	–
